Reference: the NIST ThermoML archive (doi:10.1016/j.jct.2008.02.020)

Conditions: Liquid, Buoyancy - hydrostatic balance with magnetic suspension - one sinker

Cc1ccc(Cl)cc1Cl [1,3-dichloro-4-methylbenzene]
Conditions	mass density [kg/m3]
263.15 K, 97.86 kPa	1280.75
263.15 K, 1123.9 kPa	1281.41
263.15 K, 2150.1 kPa	1282.08
263.15 K, 3971.8 kPa	1283.26
263.15 K, 6167.5 kPa	1284.65
263.15 K, 7898.5 kPa	1285.75
263.15 K, 9974.7 kPa	1287.06
273.15 K, 101.87 kPa	1270.26
273.15 K, 1168.7 kPa	1270.98
273.15 K, 2038.5 kPa	1271.57
273.15 K, 4184.1 kPa	1273.02
273.15 K, 5901.9 kPa	1274.17
273.15 K, 7917 kPa	1275.5
273.15 K, 10080 kPa	1276.92
273.15 K, 11859 kPa	1278.07
273.15 K, 14024 kPa	1279.46
273.15 K, 16108 kPa	1280.79
273.15 K, 17842 kPa	1281.88
273.15 K, 20076 kPa	1283.28
273.15 K, 22132 kPa	1284.55
273.15 K, 24150 kPa	1285.79
273.15 K, 26076 kPa	1286.95
273.15 K, 27913 kPa	1288.06
273.15 K, 29994 kPa	1289.3
293.15 K, 97.54 kPa	1249.31
293.16 K, 1126.7 kPa	1250.08
293.17 K, 1886.8 kPa	1250.65
293.18 K, 4191.9 kPa	1252.36
293.19 K, 6062.4 kPa	1253.73
293.2 K, 7970.1 kPa	1255.11
293.21 K, 10165 kPa	1256.68
293.22 K, 12144 kPa	1258.09
293.23 K, 14101 kPa	1259.46
293.24 K, 16101 kPa	1260.85
293.25 K, 18110 kPa	1262.23
293.26 K, 20077 kPa	1263.55
293.27 K, 22136 kPa	1264.94
293.28 K, 24103 kPa	1266.25
293.29 K, 25962 kPa	1267.48
293.3 K, 27896 kPa	1268.74
293.31 K, 29829 kPa	1270
313.15 K, 107.85 kPa	1228.39
313.15 K, 1095.7 kPa	1229.21
313.15 K, 2082.7 kPa	1230.02
313.15 K, 4107.2 kPa	1231.67
313.15 K, 5854.6 kPa	1233.08
313.15 K, 8123.1 kPa	1234.89
313.15 K, 10162 kPa	1236.49
313.15 K, 12124 kPa	1238.01
313.15 K, 13892 kPa	1239.36
313.15 K, 16106 kPa	1241.04
313.15 K, 18086 kPa	1242.52
313.15 K, 20144 kPa	1244.04
313.15 K, 22020 kPa	1245.42
313.15 K, 24014 kPa	1246.86
313.15 K, 25938 kPa	1248.23
313.15 K, 27776 kPa	1249.54
313.15 K, 29828 kPa	1250.98
333.15 K, 101.71 kPa	1207.38
333.15 K, 1081.7 kPa	1208.28
333.15 K, 1877.8 kPa	1209
333.15 K, 3933.1 kPa	1210.85
333.15 K, 5993.1 kPa	1212.68
333.15 K, 8164.3 kPa	1214.58
333.15 K, 10140 kPa	1216.29
333.15 K, 12129 kPa	1217.98
333.15 K, 14157 kPa	1219.68
333.15 K, 16129 kPa	1221.31
333.15 K, 18148 kPa	1222.96
333.15 K, 20046 kPa	1224.49
333.15 K, 22094 kPa	1226.12
333.15 K, 24026 kPa	1227.64
333.15 K, 25826 kPa	1229.04
333.15 K, 27856 kPa	1230.61
333.15 K, 29702 kPa	1232.01
353.15 K, 101.05 kPa	1186.2
353.15 K, 1224 kPa	1187.34
353.15 K, 2054.2 kPa	1188.18
353.15 K, 4178 kPa	1190.3
353.15 K, 6020.6 kPa	1192.11
353.15 K, 8131.5 kPa	1194.14
353.15 K, 10113 kPa	1196.02
353.15 K, 12081 kPa	1197.87
353.15 K, 14118 kPa	1199.74
353.15 K, 16085 kPa	1201.53
353.15 K, 18058 kPa	1203.29
353.15 K, 19980 kPa	1204.98
353.15 K, 22046 kPa	1206.78
353.15 K, 24056 kPa	1208.5
353.15 K, 26025 kPa	1210.17
353.15 K, 27872 kPa	1211.71
353.15 K, 29804 kPa	1213.32
373.15 K, 99.43 kPa	1164.78
373.15 K, 1084.4 kPa	1165.89
373.15 K, 1956.5 kPa	1166.87
373.15 K, 4135.4 kPa	1169.29
373.15 K, 5954.6 kPa	1171.27
373.15 K, 7981.3 kPa	1173.43
373.15 K, 10128 kPa	1175.67
373.15 K, 11936 kPa	1177.54
373.15 K, 14002 kPa	1179.62
373.15 K, 15987 kPa	1181.6
373.15 K, 18116 kPa	1183.68
373.15 K, 19990 kPa	1185.5
373.15 K, 22002 kPa	1187.4
373.15 K, 23973 kPa	1189.24
373.15 K, 26011 kPa	1191.11
373.15 K, 28050 kPa	1192.96
373.15 K, 29922 kPa	1194.64
393.15 K, 100.49 kPa	1143.03
393.15 K, 1179.5 kPa	1144.4
393.15 K, 1991.5 kPa	1145.42
393.15 K, 3926.6 kPa	1147.8
393.15 K, 5963.8 kPa	1150.27
393.15 K, 7963.7 kPa	1152.64
393.15 K, 10152 kPa	1155.17
393.15 K, 12148 kPa	1157.43
393.15 K, 14137 kPa	1159.65
393.15 K, 16116 kPa	1161.81
393.15 K, 17917 kPa	1163.75
393.15 K, 20141 kPa	1166.09
393.15 K, 22096 kPa	1168.12
393.15 K, 24174 kPa	1170.23
393.15 K, 26160 kPa	1172.22
393.15 K, 27968 kPa	1174
393.15 K, 29927 kPa	1175.92
413.15 K, 100.59 kPa	1120.92
413.15 K, 1151.6 kPa	1122.41
413.15 K, 2145.3 kPa	1123.81
413.15 K, 3981.3 kPa	1126.35
413.15 K, 6146.6 kPa	1129.27
413.15 K, 8164.1 kPa	1131.92
413.15 K, 10060 kPa	1134.35
413.15 K, 11927 kPa	1136.7
413.15 K, 14145 kPa	1139.43
413.15 K, 16150 kPa	1141.84
413.15 K, 18124 kPa	1144.17
413.15 K, 20124 kPa	1146.49
413.15 K, 22139 kPa	1148.77
413.15 K, 24073 kPa	1150.92
413.15 K, 26091 kPa	1153.13
413.15 K, 29979 kPa	1157.28
433.15 K, 95.11 kPa	1098.16
433.15 K, 1136.7 kPa	1099.85
433.15 K, 2147.7 kPa	1101.45
433.15 K, 3917.8 kPa	1104.21
433.15 K, 6150.5 kPa	1107.59
433.15 K, 8148.5 kPa	1110.53
433.15 K, 10046 kPa	1113.26
433.15 K, 12142 kPa	1116.17
433.15 K, 14151 kPa	1118.91
433.15 K, 16187 kPa	1121.62
433.15 K, 18165 kPa	1124.19
433.15 K, 20168 kPa	1126.73
433.15 K, 22138 kPa	1129.18
433.15 K, 24093 kPa	1131.56
433.15 K, 26057 kPa	1133.91
433.15 K, 28003 kPa	1136.2
433.15 K, 29939 kPa	1138.43
453.15 K, 1198.5 kPa	1076.81
453.15 K, 2151.7 kPa	1078.53
453.15 K, 4164.4 kPa	1082.08
453.15 K, 6169.6 kPa	1085.47
453.15 K, 8024.4 kPa	1088.53
453.15 K, 10086 kPa	1091.85
453.15 K, 12119 kPa	1094.99
453.15 K, 14144 kPa	1098.05
453.15 K, 16087 kPa	1100.89
453.15 K, 19984 kPa	1106.47
453.15 K, 22044 kPa	1109.28
453.15 K, 24087 kPa	1112.01
453.15 K, 26125 kPa	1114.68
453.15 K, 28000 kPa	1117.08
453.15 K, 29897 kPa	1119.49
473.15 K, 1132.5 kPa	1052.66
473.15 K, 2054.3 kPa	1054.57
473.15 K, 4181.9 kPa	1058.81
473.15 K, 5970.9 kPa	1062.27
473.15 K, 8153.5 kPa	1066.34
473.15 K, 10138 kPa	1069.91
473.15 K, 12109 kPa	1073.33
473.15 K, 14125 kPa	1073.33
473.15 K, 16133 kPa	1080.01
473.15 K, 18132 kPa	1083.19
473.15 K, 20147 kPa	1086.3
473.15 K, 22083 kPa	1089.22
473.15 K, 24078 kPa	1092.15
473.15 K, 26043 kPa	1094.96
473.15 K, 27886 kPa	1097.55
473.15 K, 29893 kPa	1100.31
